How the values were obtained:
Assay in all cases: relative viability (nuclei count vs DMSO), 5 days (fraction); higher = more cells survive
Tanzisertib + Alpelisib = compound: O[C@H]1CC[C@H](Nc2ncc3nc(Nc4c(F)cc(F)cc4F)n([C@H]4CCOC4)c3n2)CC1 [Tanzisertib] + Cc1nc(NC(=O)N2CCC[C@H]2C(N)=O)sc1-c1ccnc(C(C)(C)C(F)(F)F)c1 [Alpelisib] (partner 2 µM)
Procedure, shortened: (§1)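 Nuclei were stained with Hoechst during a one-step fixation (final 0.05% Triton X-100, 1% formaldehyde, 1 ug/ml Hoechst) carried out 5 days after dosing, then counted on 4× images. The cells, lung cancer lines in 1536-well plates, had been dosed by pin tool the day after seeding with one drug alone or a fixed anchor-drug dose plus five library-drug doses (not always all listed) in √10 steps. Relative viability is the nuclei count in treated wells divided by that in vehicle wells, and each value is the median of duplicate plates.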

[1] = compound: C[C@@H](N)c1ccc(C(=O)Nc2ccnc3[nH]ccc23)cc1 + C[C@@H](Oc1cc(-c2cnn(C3CCNCC3)c2)cnc1N)c1c(Cl)ccc(F)c1Cl [Crizotinib] (partner 1 µM)
Procedure, shortened: as §1

[2] = compound: C1CNCCC1C2=CC(=NN2)C3=CC=NC=C3 + Cc1nc(NC(=O)N2CCC[C@H]2C(N)=O)sc1-c1ccnc(C(C)(C)C(F)(F)F)c1 [Alpelisib] (partner 2 µM)
Procedure, shortened: as §1

[3] = compound: C[C@@H](N)c1ccc(C(=O)Nc2ccnc3[nH]ccc23)cc1 + Cc1nc(NC(=O)N2CCC[C@H]2C(N)=O)sc1-c1ccnc(C(C)(C)C(F)(F)F)c1 [Alpelisib] (partner 2 µM)
Procedure, shortened: as §1

| Cell Line | relative viability (Tanzisertib + Alpelisib; first compound 0.08 µM) | relative viability (Tanzisertib + Alpelisib; first compound 0.253 µM) | relative viability (Tanzisertib + Alpelisib; first compound 0.8 µM) | relative viability (Tanzisertib + Alpelisib; first compound 2.53 µM) | relative viability (Tanzisertib + Alpelisib; first compound 8 µM) | relative viability ([1]; first compound 0.04 µM) | relative viability ([1]; first compound 0.1265 µM) | relative viability ([1]; first compound 0.4 µM) | relative viability ([1]; first compound 1.265 µM) | relative viability ([1]; first compound 4 µM) | relative viability ([2]; first compound 0.08 µM) | relative viability ([2]; first compound 0.8 µM) | relative viability ([2]; first compound 2.53 µM) | relative viability ([2]; first compound 8 µM) | relative viability ([3]; first compound 0.04 µM) | relative viability ([3]; first compound 0.1265 µM) | relative viability ([3]; first compound 0.4 µM) | relative viability ([3]; first compound 1.265 µM) | relative viability ([3]; first compound 4 µM) |
| --- | --- | --- | --- | --- | --- | --- | --- | --- | --- | --- | --- | --- | --- | --- | --- | --- | --- | --- | --- |
| 201T | 1.03 | 1.04 | 1.01 | 0.993 | 1.01 | 1.02 | 1.02 | 0.959 | 1.09 | 1.1 | 1.06 | 0.841 | 1.04 | 1.04 | 1.06 | 1.01 | 1.01 | 1.06 | 1.24 |
| A549 | 0.759 | 0.648 | 0.709 | 0.706 | 0.712 | 0.833 | 0.793 | 0.734 | 0.504 | 0.268 | 0.55 | 0.65 | 0.881 | 0.848 | 0.877 | 0.834 | 0.846 | 0.751 | 0.559 |
| A-427 | 1.11 | 1.11 | 1.06 | 1.06 | 0.96 | 0.875 | 0.882 | 0.959 | – | 0.894 | 1.05 | 1.04 | 1.07 | 1.06 | 1.12 | 1.13 | 1.08 | – | 1.07 |
| ABC-1 | 1.1 | 1.06 | 1.03 | 1.3 | 1.09 | 1.47 | 1.19 | 1.4 | 1.6 | 0.857 | 0.997 | 0.857 | 1.19 | 1.13 | 1.22 | 1.04 | 1.37 | 1.58 | 0.809 |
| BEN | 0.978 | 1.04 | 1.08 | 0.955 | 1.01 | 0.952 | 0.828 | 0.918 | 1.09 | 0.675 | 0.712 | 1.07 | 0.936 | 0.984 | 1.07 | 0.995 | 1.09 | 1.25 | 0.731 |
| CAL-12T | 1.32 | 1.14 | 1.09 | 1.4 | 1.17 | 0.795 | 0.78 | 0.845 | 0.529 | 0.252 | 0.929 | 1.56 | 1.51 | 1.28 | 1.37 | 1.36 | 1.43 | 1.54 | 0.903 |
| COR-L23 | 0.784 | 0.759 | 0.743 | 0.807 | 0.793 | 0.64 | 0.741 | 0.647 | 0.412 | 0.17 | 0.821 | 0.925 | 0.969 | 0.736 | 0.699 | 0.788 | 0.921 | 0.801 | 0.381 |
| COR-L 105 | 1.19 | 0.832 | 1.07 | 1.09 | 0.924 | 0.721 | 0.747 | 0.652 | 0.537 | 0.408 | 0.954 | 1.05 | 1.11 | 0.852 | 0.876 | 1.07 | 0.918 | 0.957 | 0.65 |
| Calu-6 | 1.12 | 0.96 | 0.934 | 0.994 | 0.988 | 0.761 | 0.76 | 0.741 | 0.682 | 0.489 | 0.896 | 1.05 | 1.03 | 1.04 | 0.958 | 1.01 | 0.904 | 0.765 | 0.797 |
| ChaGo-K-1 | – | – | – | – | – | 1.07 | 1.17 | 1.1 | – | 0.846 | – | – | – | – | – | – | – | – | – |
| EBC-1 | 0.999 | 0.789 | 0.829 | 0.792 | 0.697 | 0.216 | 0.184 | 0.189 | 0.141 | 0.145 | 0.926 | 0.704 | 0.819 | 0.857 | 0.97 | 0.775 | 0.797 | 0.771 | 0.93 |
| EKVX | 0.72 | 0.846 | 0.952 | 0.832 | 0.685 | 0.979 | 1.03 | 1.04 | 1.05 | 0.963 | 0.738 | 0.573 | 1.03 | 0.818 | 0.897 | 0.95 | 0.887 | 0.895 | 0.748 |
| EMC-BAC-2 | 0.78 | 0.754 | 0.725 | 0.688 | 0.688 | 0.806 | 0.793 | 0.707 | 0.764 | 0.655 | 0.755 | 0.659 | 0.72 | 0.758 | 0.772 | 0.723 | 0.696 | 0.74 | 0.54 |
| EPLC-272H | 0.998 | 0.942 | 0.951 | 1.01 | 0.971 | 0.922 | 0.891 | 0.957 | – | 0.61 | 0.99 | 0.774 | 0.953 | 0.983 | 1.1 | 0.961 | 1.05 | – | 1.1 |
| H3255 | 0.739 | 0.718 | 0.665 | 0.629 | 0.471 | 0.862 | 0.979 | 1.04 | 0.972 | 0.761 | 0.674 | 0.646 | 0.858 | 0.734 | 0.774 | 0.742 | 0.806 | 0.716 | 0.673 |
| HARA | 0.752 | 0.762 | 0.852 | 0.795 | 0.842 | 1.18 | 1.13 | 1.21 | 0.835 | 0.735 | 0.821 | 0.811 | 0.898 | 0.82 | 0.813 | 0.928 | 0.914 | 0.796 | 0.598 |
| HCC-15 | 1.04 | 0.884 | 0.924 | 0.874 | 0.797 | 0.903 | 0.781 | 0.805 | – | 0.72 | 0.856 | 0.856 | 0.898 | 0.839 | 0.969 | 0.871 | 0.996 | – | 0.917 |
| HCC-44 | 0.839 | 0.834 | 0.852 | 0.768 | 0.75 | 0.82 | 0.776 | 0.86 | 0.995 | 0.652 | 0.815 | 0.7 | 0.794 | 0.794 | 0.886 | 0.736 | 0.91 | 0.847 | 0.588 |

Source: the supplement of paper PMC10307832
